Data taken from patent US20230117034A1, “PYRAZOLOTRIAZINES” (Bayer Aktiengesellschaft, priority 2019, published 2023).

Assays:
CDK12/CycK = CDK12/CycK (Homo sapiens, UniProt Q9NYV4); assay: CDK12/CycK high ATP kinase assay (TR-FRET, 2 mM ATP); type: biochemical; conditions: 2 mM ATP (high ATP); median; read-out: CDK12/CyclinK, 2 mM ATP (high ATP), IC50-[mol/l] (median)
Outline: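 Read-out is TR-FRET (Eu-anti-rabbit IgG, anti-phospho-c-Myc Ser62 antibody, streptavidin-XL665) after EDTA stop. Reaction ran 60 min at 22 °C using 1 µM biotin-peptide and high ATP (2 mM) with roughly 0.75 nM recombinant CDK12/CycK, after 15 min compound pre-binding; normalised emission ratios yield IC50.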

[1] = test system: CAL-120, human breast adenocarcinoma cells; assay: Proliferation assay CAL-120 (crystal violet, 4 days); type: cell-based; conditions: Homo sapiens, CAL-120, 96 h, CAL-120 cells, median, read-out: Prolif-CAL-120, IC50-[mol/l] (median)
Outline: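 Crystal violet proliferation read-out after 4 days of compound exposure (0.01-10 µmol/L; solvent 0.1% DMSO). Extinction at 595 nm, set between zero-point (0%) and vehicle (100%), fitted with 4 parameters to give IC50.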

CDK12/CycK, sequence (Q9NYV4 with tags, fused parts or gaps): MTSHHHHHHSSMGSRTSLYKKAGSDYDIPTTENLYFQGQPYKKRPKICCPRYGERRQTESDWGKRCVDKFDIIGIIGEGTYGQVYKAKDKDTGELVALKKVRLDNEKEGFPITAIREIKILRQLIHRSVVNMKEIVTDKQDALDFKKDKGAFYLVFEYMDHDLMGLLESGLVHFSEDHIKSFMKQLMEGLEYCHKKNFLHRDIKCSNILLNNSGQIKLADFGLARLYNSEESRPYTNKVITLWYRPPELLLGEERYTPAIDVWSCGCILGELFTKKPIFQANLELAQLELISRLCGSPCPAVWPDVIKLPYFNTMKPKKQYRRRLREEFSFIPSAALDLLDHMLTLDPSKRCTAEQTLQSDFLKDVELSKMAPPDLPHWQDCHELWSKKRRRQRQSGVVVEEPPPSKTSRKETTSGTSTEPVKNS
CDK12/CycK, sequence (O75909 1-300 partner limits assumed): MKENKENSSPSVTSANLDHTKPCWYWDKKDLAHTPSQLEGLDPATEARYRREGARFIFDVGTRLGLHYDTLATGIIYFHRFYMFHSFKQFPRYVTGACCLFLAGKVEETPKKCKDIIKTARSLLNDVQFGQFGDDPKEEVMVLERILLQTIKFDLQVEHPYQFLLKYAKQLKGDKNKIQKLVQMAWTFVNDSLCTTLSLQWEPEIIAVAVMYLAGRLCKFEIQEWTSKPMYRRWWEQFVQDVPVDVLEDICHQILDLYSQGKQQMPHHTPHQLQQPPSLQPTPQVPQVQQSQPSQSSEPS

Q: Which IC50 (CDK12/CycK) does the source give for `CC(C)(O)CNc1nc(NCc2nc3ccccc3[nH]2)n2ncc(Br)c2n1` [Example 229, 1-[(4-{[(1H-benzimidazol-2-yl)methyl]amino}-8-bromopyrazolo[1,5-a][1,3,5]triazin-2-yl)amino]-2-methylpropan-2-ol] here?
A: 5.51 µM

Q: What about the IC50 [1] of the same molecule?
A: 0.0394 µM

Q: How did the IC50 (CDK12/CycK) turn out when `O=C1CN(c2nc(NCc3nc4ccccc4[nH]3)n3ncc(Br)c3n2)CCN1` [Example 167, 4-(4-{[(1H-benzimidazol-2-yl)methyl]amino}-8-bromopyrazolo[1,5-a][1,3,5]triazin-2-yl)piperazin-2-one] was run?
A: 7.12 µM

Q: What about the IC50 [1] of the same molecule?
A: 0.0704 µM

Q: What does the source list for `C[C@H]1CN(c2nc(NCc3nc4ccccc4[nH]3)n3ncc(Br)c3n2)CCN1` [Example 169, N-[(1H-benzimidazol-2-yl)methyl]-8-bromo-2-[(3S)-3-methylpiperazin-1-yl]pyrazolo[1,5-a][1,3,5]triazin-4-amine]?
A: IC50 (CDK12/CycK): 13.7 µM; IC50 [1]: 0.00356 µM

Q: Which results are given for `Fc1cccc2[nH]c(CNc3nc(N4C[C@@H]5CCCN[C@@H]5C4)nc4c(C5CC5)cnn34)nc12` [Example 187, 8-cyclopropyl-N-[(4-fluoro-1H-benzimidazol-2-yl)methyl]-2-[(4aS,7aS)-octahydro-6H-pyrrolo[3,4-b]pyridin-6-yl]pyrazolo[1,5-a][1,3,5]triazin-4-amine]?
A: IC50 (CDK12/CycK): 6.5 µM; IC50 [1]: 0.0011 µM

Q: `COc1cccc2[nH]c(CNc3nc(N4C[C@@H](C)N[C@@H](C)C4)nc4c(C5CC5)cnn34)nc12` [Example 212, 8-cyclopropyl-2-[(3R,5S)-3,5-dimethylpiperazin-1-yl]-N-[(4-methoxy-1H-benzimidazol-2-yl)methyl]pyrazolo[1,5-a][1,3,5]triazin-4-amine] was tested. Which IC50 (CDK12/CycK) did it give?
A: 4.15 µM

Q: What about the IC50 [1] of the same molecule?
A: 0.00229 µM

Q: What does the source list for `CN(C)[C@H]1CCN(c2nc(NCc3nc4ccccc4[nH]3)n3ncc(Br)c3n2)C1` [Example 177, N-[(1H-benzimidazol-2-yl)methyl]-8-bromo-2-[(3S)-3-(dimethylamino)pyrrolidin-1-yl]pyrazolo[1,5-a][1,3,5]triazin-4-amine]?
A: IC50 (CDK12/CycK): > 20 µM; IC50 [1]: 0.0688 µM

Q: Which results are given for `Brc1cnn2c(NCc3nc4ccccc4[nH]3)nc(N3C[C@H]4CCCN[C@H]4C3)nc12` [Example 199, N-[(1H-benzimidazol-2-yl)methyl]-8-bromo-2-[(4aR, 7aR)-octahydro-6H-pyrrolo[3,4-b]pyridin-6-yl]pyrazolo[1,5-a][1,3,5]triazin-4-amine]?
A: IC50 (CDK12/CycK): 14.8 µM; IC50 [1]: 0.0154 µM

Q: Which results are given for `Cc1ccc2[nH]c(CNc3nc(N4C[C@H]5C[C@@H]4CO5)nc4c(C5CC5)cnn34)nc2c1` [Example 196, 8-cyclopropyl-N-[(5-methyl-1H-benzimidazol-2-yl)methyl]-2-[(1R,4R)-2-oxa-5-azabicyclo[2.2.1]heptan-5-yl]pyrazolo[1,5-a][1,3,5]triazin-4-amine]?
A: IC50 (CDK12/CycK): 15.4 µM; IC50 [1]: 0.00805 µM

Q: For `CN(CCN1CCCC1)c1nc(NCc2nc3ccccc3[nH]2)n2ncc(Br)c2n1` [Example 239, N4-(1H-benzimidazol-2-ylmethyl)-8-bromo-N2-methyl-N2-(2-pyrrolidin-1-ylethyl)pyrazolo[1,5-a][1,3,5]triazine-2,4-diamine], which IC50 (CDK12/CycK) is on record?
A: > 20 µM

Q: What about the IC50 [1] of the same molecule?
A: 0.436 µM

Q: Which results are given for `Fc1ccc2[nH]c(CNc3nc(N4CCNCC4)nc4c(C5CC5)cnn34)nc2c1F` [Example 174, 8-cyclopropyl-N-[(4,5-difluoro-1H-benzimidazol-2-yl)methyl]-2-(piperazin-1-yl)pyrazolo[1,5-a][1,3,5]triazin-4-amine]?
A: IC50 (CDK12/CycK): 1.19 µM; IC50 [1]: 0.001 µM

Q: For `Fc1ccc2[nH]c(CNc3nc(N4C[C@@H]5CCCN[C@@H]5C4)nc4c(C5CC5)cnn34)nc2c1F` [Example 171, 8-cyclopropyl-N-[(4,5-difluoro-1H-benzimidazol-2-yl)methyl]-2-[(4aS,7aS)-octahydro-6H-pyrrolo[3,4-b]pyridin-6-yl]pyrazolo[1,5-a][1,3,5]triazin-4-amine], which IC50 (CDK12/CycK) is on record?
A: 6.56 µM

Q: And the IC50 [1]?
A: 0.00266 µM

Q: `Fc1cccc2[nH]c(CNc3nc(N4CCOCC4)nc4c(C5CC5)cnn34)nc12` [Example 188, 8-cyclopropyl-N-[(4-fluoro-1H-benzimidazol-2-yl)methyl]-2-(morpholin-4-yl)pyrazolo[1,5-a][1,3,5]triazin-4-amine] was tested. Which IC50 (CDK12/CycK) did it give?
A: 0.581 µM

Q: What about the IC50 [1] of the same molecule?
A: 0.0176 µM

Q: Which IC50 (CDK12/CycK) does the source give for `CN1CC2CN(c3nc(NCc4nc5ccccc5[nH]4)n4ncc(Br)c4n3)CC2C1` (centres unmarked) [Example 240, N-(1H-benzimidazol-2-ylmethyl)-8-bromo-2-(2-methyl-1,3,3a,4,6,6a-hexahydropyrrolo[3,4-c]pyrrol-5-yl)pyrazolo[1,5-a][1,3,5]triazin-4-amine] here?
A: > 20 µM

Q: What about the IC50 [1] of the same molecule?
A: 0.0237 µM

Q: Which results are given for `Brc1cnn2c(NCc3nc4ccccc4[nH]3)nc(NCCN3CCCC3)nc12` [Example 235, N4-(1H-benzimidazol-2-ylmethyl)-8-bromo-N2-(2-pyrrolidin-1-ylethyl)pyrazolo[1,5-a][1,3,5]triazine-2,4-diamine]?
A: IC50 (CDK12/CycK): > 20 µM; IC50 [1]: 0.274 µM

Q: How did the IC50 (CDK12/CycK) turn out when `CCNc1nc(NCc2nc3ccccc3[nH]2)n2ncc(Br)c2n1` [Example 227, N4-(1H-benzimidazol-2-ylmethyl)-8-bromo-N2-ethyl-pyrazolo[1,5-a][1,3,5]triazine-2,4-diamine] was run?
A: 9.51 µM

Q: What about the IC50 [1] of the same molecule?
A: 0.0442 µM

Q: `COCCNc1nc(NCc2nc3ccccc3[nH]2)n2ncc(Br)c2n1` [Example 230, N4-(1H-benzimidazol-2-ylmethyl)-8-bromo-N2-(2-methoxyethyl)pyrazolo[1,5-a][1,3,5]triazine-2,4-diamine] was tested. Which IC50 (CDK12/CycK) did it give?
A: > 20 µM

Q: And the IC50 [1]?
A: 0.313 µM

Q: `CC1(C)CN(c2nc(NCc3nc4ccccc4[nH]3)n3ncc(Br)c3n2)CCN1` [Example 216, N-[(1H-benzimidazol-2-yl)methyl]-8-bromo-2-(3,3-dimethylpiperazin-1-yl)pyrazolo[1,5-a][1,3,5]triazin-4-amine] was tested. Which IC50 (CDK12/CycK) did it give?
A: > 4.59 µM

Q: What about the IC50 [1] of the same molecule?
A: 0.00855 µM

Q: What does the source list for `COc1cccc2[nH]c(CNc3nc(N4CCOCC4)nc4c(C5CC5)cnn34)nc12` [Example 213, 8-cyclopropyl-N-[(4-methoxy-1H-benzimidazol-2-yl)methyl]-2-morpholino-pyrazolo[1,5-a][1,3,5]triazin-4-amine]?
A: IC50 (CDK12/CycK): 1.05 µM; IC50 [1]: 0.0107 µM

Q: What does the source list for `CN1CCN(c2nc(NCc3nc4ccccc4[nH]3)n3ncc(-c4ccncc4)c3n2)CC1` [Example 242, N-[(1H-benzimidazol-2-yl)methyl]-2-(4-methylpiperazin-1-yl)-8-(pyridin-4-yl)pyrazolo[1,5-a][1,3,5]triazin-4-amine]?
A: IC50 (CDK12/CycK): > 20 µM; IC50 [1]: 0.857 µM

Q: Which results are given for `O[C@H]1C[C@@H](Nc2nc(NCc3nc4ccccc4[nH]3)n3ncc(Br)c3n2)C1` [Example 234, cis-3-[(4-{[(1H-benzimidazol-2-yl)methyl]amino}-8-bromopyrazolo[1,5-a][1,3,5]triazin-2-yl)amino]cyclobutan-1-ol]?
A: IC50 (CDK12/CycK): 4.86 µM; IC50 [1]: 0.0313 µM

Q: With `CN1C[C@@H]2C[C@H]1CN2c1nc(NCc2nc3ccccc3[nH]2)n2ncc(Br)c2n1` [Example 219, N-[(1H-benzimidazol-2-yl)methyl]-8-bromo-2-[(1S,4S)-5-methyl-2,5-diazabicyclo[2.2.1]heptan-2-yl]pyrazolo[1,5-a][1,3,5]triazin-4-amine] as the molecule, how does the IC50 (CDK12/CycK) read?
A: > 20 µM

Q: And the IC50 [1]?
A: 0.0272 µM

Q: With `C[C@@H]1CN(c2nc(NCc3nc4ccccc4[nH]3)n3ncc(Br)c3n2)CCN1` [Example 168, N-[(1H-benzimidazol-2-yl)methyl]-8-bromo-2-[(3R)-3-methylpiperazin-1-yl]pyrazolo[1,5-a][1,3,5]triazin-4-amine] as the molecule, how does the IC50 (CDK12/CycK) read?
A: 5.78 µM

Q: What about the IC50 [1] of the same molecule?
A: 0.00325 µM

Q: For `CN(C)C1CCN(c2nc(NCc3nc4ccccc4[nH]3)n3ncc(Br)c3n2)CC1` [Example 201, N-[(1H-benzimidazol-2-yl)methyl]-8-bromo-2-[4-(dimethylamino)piperidin-1-yl]pyrazolo[1,5-a][1,3,5]triazin-4-amine], which IC50 (CDK12/CycK) is on record?
A: > 20 µM

Q: And the IC50 [1]?
A: 0.126 µM

Q: Which IC50 (CDK12/CycK) does the source give for `Fc1ccc2[nH]c(CNc3nc(N4C[C@@H]5C[C@H]4CO5)nc4c(C5CC5)cnn34)nc2c1` [Example 185, 8-cyclopropyl-N-[(5-fluoro-1H-benzimidazol-2-yl)methyl]-2-[(1S,4S)-2-oxa-5-azabicyclo[2.2.1]heptan-5-yl]pyrazolo[1,5-a][1,3,5]triazin-4-amine] here?
A: > 19.6 µM

Q: And the IC50 [1]?
A: 0.0186 µM

Q: `Fc1cccc2[nH]c(CNc3nc(N4C[C@@H]5C[C@H]4CO5)nc4c(C5CC5)cnn34)nc12` [Example 183, 8-cyclopropyl-N-[(4-fluoro-1H-benzimidazol-2-yl)methyl]-2-[(1S,4S)-2-oxa-5-azabicyclo[2.2.1]heptan-5-yl]pyrazolo[1,5-a][1,3,5]triazin-4-amine] was tested. Which IC50 (CDK12/CycK) did it give?
A: 10.2 µM

Q: What about the IC50 [1] of the same molecule?
A: 0.0274 µM

Q: `CO[C@@H]1CCN(c2nc(NCc3nc4ccccc4[nH]3)n3ncc(Br)c3n2)C1` [Example 223, N-[(1H-benzimidazol-2-yl)methyl]-8-bromo-2-[(3R)-3-methoxypyrrolidin-1-yl]pyrazolo[1,5-a][1,3,5]triazin-4-amine] was tested. Which IC50 (CDK12/CycK) did it give?
A: > 16.5 µM

Q: And the IC50 [1]?
A: 0.27 µM

Q: Which results are given for `Cc1ccc2[nH]c(CNc3nc(N4CCOCC4)nc4c(C5CC5)cnn34)nc2c1` [Example 193, 8-cyclopropyl-N-[(5-methyl-1H-benzimidazol-2-yl)methyl]-2-(morpholin-4-yl)pyrazolo[1,5-a][1,3,5]triazin-4-amine]?
A: IC50 (CDK12/CycK): 1.75 µM; IC50 [1]: 0.00506 µM

Q: With `Cc1ccc2[nH]c(CNc3nc(N4C[C@H]5C[C@@H]4CO5)nc4c(Br)cnn34)nc2c1` [Example 192, 8-bromo-N-[(5-methyl-1H-benzimidazol-2-yl)methyl]-2-[(1R,4R)-2-oxa-5-azabicyclo[2.2.1]heptan-5-yl]pyrazolo[1,5-a][1,3,5]triazin-4-amine] as the molecule, how does the IC50 (CDK12/CycK) read?
A: 8.5 µM

Q: What about the IC50 [1] of the same molecule?
A: 0.00308 µM
